{
  "source": "ChEMBL document CHEMBL5120862",
  "about": "“Novel non-covalent LSD1 inhibitors endowed with anticancer effects in leukemia and solid tumor cellular models” (Eur J Med Chem, 2022)",
  "key": {"LSD1/CoREST complex [1]": {"molecular_target": "T1, LSD1/CoREST complex (Homo sapiens, UniProt O60341)", "assay": "Binding affinity to human LSD1/CoREST assessed as dissociation constant by competitive fluorescence polarization assay", "assay_type": "protein-complex assay"}, "[2]": {"molecular_target": "Lysine-specific histone demethylase 1A (Homo sapiens) (UniProt O60341)", "assay": "Inhibition of LSD1 in human RD cells assessed as increase in H3K4me2 level at 2 uM incubated for 48 hrs by Western blot analysis", "assay_type": "cell-based"}, "[3]": {"molecular_target": "Lysine-specific histone demethylase 1A (Homo sapiens) (UniProt O60341)", "assay": "Inhibition of LSD1 in human MV4-11 cells assessed as increase in CD86 expression level incubated for 24 hrs by qRT-PCR analysis", "assay_type": "cell-based", "details": "dose 0.2-1 µM"}, "MDA-MB-231": {"tested_on": "MDA-MB-231", "assay": "Antiproliferative activity against human MDA-MB-231 cells assessed as inhibition of cell growth measured after 72 hrs by MTT assay", "assay_type": "functional, cell-based", "details": "MDA-MB-231, 72 h"}, "SJRH30 [4]": {"tested_on": "SJRH30", "assay": "Induction of apoptosis in human Rh30 cells assessed as increase in caspase 3/7 level at 4 uM incubated for 24 hrs", "assay_type": "functional, cell-based"}, "[5]": {"molecular_target": "Lysine-specific histone demethylase 1A (Homo sapiens) (UniProt O60341)", "assay": "Inhibition of LSD1 in human Rh30 cells assessed as increase in H3K4me2 level at 2 uM incubated for 48 hrs by Western blot analysis", "assay_type": "cell-based"}, "RD [6]": {"tested_on": "RD", "assay": "Antiproliferative activity against human RD cells assessed as reduction in live cells at 4 uM incubated for 72 hrs by calceinAM/propidium iodide staining based fluorescence microscopy", "assay_type": "functional, cell-based"}, "THP-1 [7]": {"tested_on": "THP-1", "assay": "Antiproliferative activity against human THP-1 cells assessed as inhibition of cell growth incubated for 24 hrs by CellTiter-Glo luminescent cell viability assay", "assay_type": "functional, cell-based", "details": "THP-1, 24 h"}, "[8]": {"assay": "Cytotoxicity against human derived mesenchymal stem cells assessed as residual cell viability at 1.25 uM measured after 72 hrs relative to control", "assay_type": "toxicity, cell-based", "details": "read-out: Activity"}, "RD [9]": {"tested_on": "RD", "assay": "Induction of apoptosis in human RD cells assessed as increase in caspase 3/7 level at 4 uM incubated for 24 hrs", "assay_type": "functional, cell-based"}, "[10]": {"molecular_target": "T2, Histone-lysine N-methyltransferase EHMT2 (Homo sapiens, UniProt Q96KQ7)", "T2 sequence (Q96KQ7 whole entry)": "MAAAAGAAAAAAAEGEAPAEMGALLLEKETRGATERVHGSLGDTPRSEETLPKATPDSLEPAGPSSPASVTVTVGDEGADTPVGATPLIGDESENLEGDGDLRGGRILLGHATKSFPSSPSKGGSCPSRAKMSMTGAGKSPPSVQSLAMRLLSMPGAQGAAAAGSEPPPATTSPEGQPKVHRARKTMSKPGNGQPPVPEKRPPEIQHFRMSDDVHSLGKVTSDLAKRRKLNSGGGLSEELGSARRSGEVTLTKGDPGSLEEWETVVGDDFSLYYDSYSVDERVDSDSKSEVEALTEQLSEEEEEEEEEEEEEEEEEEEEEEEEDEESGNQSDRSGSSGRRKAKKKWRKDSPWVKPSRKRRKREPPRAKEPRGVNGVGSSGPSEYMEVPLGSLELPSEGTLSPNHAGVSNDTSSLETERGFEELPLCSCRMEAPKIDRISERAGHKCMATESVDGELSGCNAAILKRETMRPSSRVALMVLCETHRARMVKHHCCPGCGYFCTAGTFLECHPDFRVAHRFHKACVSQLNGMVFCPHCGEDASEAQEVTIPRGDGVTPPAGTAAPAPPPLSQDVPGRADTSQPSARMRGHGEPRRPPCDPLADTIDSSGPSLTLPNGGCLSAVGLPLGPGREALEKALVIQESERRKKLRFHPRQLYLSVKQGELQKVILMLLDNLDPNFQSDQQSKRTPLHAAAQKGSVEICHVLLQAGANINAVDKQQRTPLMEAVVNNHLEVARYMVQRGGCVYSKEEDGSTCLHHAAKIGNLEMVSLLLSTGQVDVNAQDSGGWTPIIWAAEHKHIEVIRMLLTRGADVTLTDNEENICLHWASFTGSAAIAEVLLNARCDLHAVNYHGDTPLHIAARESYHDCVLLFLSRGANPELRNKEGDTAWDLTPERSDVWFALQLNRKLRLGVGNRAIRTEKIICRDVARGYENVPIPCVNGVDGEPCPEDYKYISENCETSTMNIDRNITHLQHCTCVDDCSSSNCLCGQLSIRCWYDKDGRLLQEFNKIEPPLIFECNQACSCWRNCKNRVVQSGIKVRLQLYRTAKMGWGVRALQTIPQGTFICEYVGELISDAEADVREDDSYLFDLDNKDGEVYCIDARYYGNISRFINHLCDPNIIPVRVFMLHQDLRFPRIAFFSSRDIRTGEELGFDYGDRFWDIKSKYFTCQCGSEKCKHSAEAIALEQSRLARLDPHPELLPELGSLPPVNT", "assay": "Inhibition of G9a (unknown origin) assessed as reduction in substrate methylation using histone H3 and SAM as substrate measured after 15 to 60 mins by microfluidic capillary electrophoresis analysis"}, "THP-1 [11]": {"tested_on": "THP-1", "assay": "Antiproliferative activity against human THP-1 cells assessed as inhibition of cell growth incubated for 144 hrs by CellTiter-Glo luminescent cell viability assay", "assay_type": "functional, cell-based", "details": "THP-1, 144 h"}, "RD [12]": {"tested_on": "RD", "assay": "Antiproliferative activity against human RD cells assessed as inhibition of cell growth incubated for 24 hrs", "assay_type": "functional, cell-based"}, "RD [13]": {"tested_on": "RD", "assay": "Antiproliferative activity against human RD cells assessed as inhibition of cell growth incubated for 72 hrs", "assay_type": "functional, cell-based"}, "SJRH30 [14]": {"tested_on": "SJRH30", "assay": "Antiproliferative activity against human Rh30 cells assessed as inhibition of cell growth incubated for 24 hrs", "assay_type": "functional, cell-based", "details": "SJRH30, 24 h"}, "LSD1/CoREST complex [15]": {"molecular_target": "T1, LSD1/CoREST complex", "assay": "Inhibition of human LSD1/CoREST using histone H3 peptide as substrate by fluorescence polarization assay", "assay_type": "protein-complex assay"}, "[16]": {"molecular_target": "Lysine-specific histone demethylase 1A (Homo sapiens) (UniProt O60341)", "assay": "Inhibition of LSD1 in human MV4-11 cells assessed as increase in H3K4me2 level at 0.2 to […] incubated for 24 hrs by Western blot analysis", "assay_type": "cell-based", "details": "dose 0.2-2.5 µM"}, "MV4-11 [17]": {"tested_on": "MV4-11", "assay": "Induction of cell cycle arrest in human MV4-11 cells assessed as accumulation of cells at G1 phase at 0.2 to […] incubated for 24 hrs", "assay_type": "functional, cell-based", "details": "dose 0.2-2.5 µM"}, "MV4-11 [18]": {"tested_on": "MV4-11", "assay": "Induction of apoptosis in human MV4-11 cells assessed as accumulation of cells at sub-G1 phase incubated for 24 hrs", "assay_type": "functional, cell-based", "details": "dose 0.2-25 µM, DDE = dose-dependent effect"}, "THP-1 [19]": {"tested_on": "THP-1", "assay": "Antiproliferative activity against human THP-1 cells assessed as inhibition of cell growth incubated for 72 hrs by CellTiter-Glo luminescent cell viability assay", "assay_type": "functional, cell-based", "details": "THP-1, 72 h"}, "SJRH30 [20]": {"tested_on": "SJRH30", "assay": "Antiproliferative activity against human Rh30 cells assessed as inhibition of cell growth incubated for 72 hrs", "assay_type": "functional, cell-based", "details": "SJRH30, 72 h"}, "SJRH30 [21]": {"tested_on": "SJRH30", "assay": "Antiproliferative activity against human Rh30 cells assessed as inhibition of cell growth incubated for 144 hrs", "assay_type": "functional, cell-based", "details": "SJRH30, 144 h"}, "SJRH30 [22]": {"tested_on": "SJRH30", "assay": "Antiproliferative activity against human Rh30 cells assessed as reduction in live cells at 4 uM incubated for 24 hrs by calceinAM/propidium iodide staining based fluorescence microscopy", "assay_type": "functional, cell-based"}, "RD [23]": {"tested_on": "RD", "assay": "Antiproliferative activity against human RD cells assessed as inhibition of cell growth incubated for 144 hrs", "assay_type": "functional, cell-based"}, "MV4-11 [24]": {"tested_on": "MV4-11", "assay": "Antiproliferative activity against human MV4-11 cells assessed as inhibition of cell growth at […] incubated for 72 to 144 hrs by trypan blue staining based analysis", "assay_type": "functional", "details": "dose 2.5 µM, time 72-144 hrs"}},
  "note": "Active and inactive are the calls of the source. The rule behind the calls is not given here.",
  "data": [
    {"smiles": "C#CCN(C)CCCNc1nc(NC2CCN(Cc3ccccc3)CC2)c2cc(OC)c(OC)cc2n1", "values": [
      {"measurement": "Kd", "setting": "LSD1/CoREST complex [1]", "value": 64, "unit": "nM"},
      {"measurement": "inhibition", "setting": "[2]", "value": "Active"},
      {"measurement": "inhibition", "setting": "[3]", "value": "Active"},
      {"measurement": "IC50", "setting": "MDA-MB-231", "value": 3400, "unit": "nM"},
      {"measurement": "Activity", "setting": "SJRH30 [4]", "value": "Active"},
      {"measurement": "inhibition", "setting": "[5]", "value": "Active"},
      {"measurement": "Activity", "setting": "RD [6]", "value": "Active"},
      {"measurement": "IC50", "setting": "THP-1 [7]", "value": 420, "unit": "nM"},
      {"measurement": "viability at 72 h, 1.25 µM", "setting": "[8]", "value": 96, "unit": "%"},
      {"measurement": "Activity", "setting": "RD [9]", "value": "Active"},
      {"measurement": "Ki", "setting": "[10]", "value": 26100, "unit": "nM"},
      {"measurement": "IC50", "setting": "THP-1 [11]", "value": 160, "unit": "nM"},
      {"measurement": "IC50", "setting": "RD [12]", "value": 4560, "unit": "nM"},
      {"measurement": "IC50", "setting": "RD [13]", "value": 1920, "unit": "nM"},
      {"measurement": "IC50", "setting": "SJRH30 [14]", "value": 1760, "unit": "nM"},
      {"measurement": "Ki", "setting": "LSD1/CoREST complex [15]", "value": 153, "unit": "nM"},
      {"measurement": "inhibition", "setting": "[16]", "value": "Active"},
      {"measurement": "Activity", "setting": "MV4-11 [17]", "value": "Active"},
      {"measurement": "Activity", "setting": "MV4-11 [18]", "value": "Dde"},
      {"measurement": "IC50", "setting": "THP-1 [19]", "value": 340, "unit": "nM"},
      {"measurement": "IC50", "setting": "SJRH30 [20]", "value": 1530, "unit": "nM"},
      {"measurement": "IC50", "setting": "SJRH30 [21]", "value": 1420, "unit": "nM"},
      {"measurement": "Activity", "setting": "SJRH30 [22]", "value": "Active"},
      {"measurement": "IC50", "setting": "RD [23]", "value": 1420, "unit": "nM"},
      {"measurement": "inhibition", "setting": "MV4-11 [24]", "value": "Active"}
    ]}
  ]
}
